Like-named read-outs stand apart in the source and are kept apart here.
Key:
A549 = experiment: MTT assay, cell proliferation; type: cell-based; conditions: 24 h, read-out: IC50, inhibition of cell proliferation
Method: (§1) HepG2, HCT116, HeLa and LO2 cell lines were cultured in DMEM containing 10% fetal bovine serum (FBS), 100 IU/mL penicillin and 100 µg/mL streptomycin; A549 and K562 cell lines were cultured in RPMI 1640 medium containing 10% fetal bovine serum (FBS), 100 IU/mL penicillin and 100 µg/mL streptomycin; Human umbilical vein endothelial cells (HUVECs) were cultured on gelatin-coated culture flasks in M-199 medium with 20% fetal bovine serum (FBS), 2 ng/mL VEGF, 10 ng/mL basic FGF, 100 IU/mL penicillin, and 100 μg/mL streptomycin; all of them were obtained from the American Type Culture Collection (ATCC) and all cell lines were incubated in an atmosphere of 5% CO2 at 37 °C.
(§2) Cells were treated with various concentrations of compound in 96-well culture plates for 24 h in final volumes of 200 μL (5 × 10^3 cells/well). Then 20 μL of MTT solution (5 mg/mL) was added to each well, and cells were incubated for an additional 3 h. Then the medium was carefully removed, and precipitates were dissolved in 150 μL of DMSO, shaken mechanically for 30 min, and then absorbance values at a wavelength of 570 nm were taken on a spectrophotometer (Molecular Devices, Sunnyvale, CA, USA). Values were calculated using percentage of growth versus untreated control. The IC50 was defined as the concentration that caused 50% inhibition of cell proliferation, and was calculated by SAS statistical software.

HCT116 = experiment: MTT assay, cell proliferation; type: cell-based; conditions: read-out: IC50, inhibition of cell proliferation
Method: as §1, §2

HeLa = experiment: MTT assay, cell proliferation; type: cell-based; conditions: 24 h, read-out: IC50, inhibition of cell proliferation
Method: as §1, §2

HepG2 = experiment: MTT assay, cell proliferation; type: cell-based; conditions: 24 h, read-out: IC50, inhibition of cell proliferation
Method: as §1, §2

K562 = experiment: MTT assay, cell proliferation; type: cell-based; conditions: 24 h, read-out: IC50, inhibition of cell proliferation
Method: as §1, §2

HUVEC = experiment: MTT assay, cell proliferation; type: cell-based, Human; conditions: 24 h, read-out: IC50, inhibition of cell proliferation
Method: Inhibiting the proliferation of ECs is another important strategy for antiangiogenesis. […] As the exposure time of these derivatives was 24 h in the migration assay and 6 h in the tube formation assay, the effect of the incubation for 24 h in the presence of these compounds on HUVECs proliferation was then tested. Cell viability was assessed by the MTT method. We can see from Table 4 that these compounds had different antiproliferative activities.
as §1, §2

LO2 = experiment: MTT assay, cytotoxicity; type: cell-based; conditions: read-out: IC50, inhibition of cell proliferation
Method: as §1, §2

Row | Molecule | IC50 (A549; Homo sapiens) | IC50 (HCT116; Homo sapiens, HCT-116, 24 h) | IC50 (HeLa; Homo sapiens) | IC50 (HepG2; Homo sapiens) | IC50 (K562; Homo sapiens) | IC50 (HUVEC; Homo sapiens) | IC50 (LO2; Homo sapiens, L02, 24 h) | IC50 (A549) | IC50 (HCT116; 24 h) | IC50 (HeLa) | IC50 (HepG2) | IC50 (K562) | IC50 (HUVEC) | IC50 (LO2; 24 h)
1 | CC(C)=CCCC1(C)C=Cc2c(O)c3c(c(CC=C(C)C)c2O1)OC12C(=CC4CC1C(C)(C)OC2(C/C=C(/C)C(=O)Sc1nccs1)C4=O)C3=O (stereo not shown) [Compound 29, S-thiazol-2-yl gambogthioate] | 0.63 ± 0.01 µM | 1.63 ± 0.15 µM | 1.45 ± 0.07 µM | 0.85 ± 0.15 µM | 0.79 ± 0.06 µM | 6.64 ± 0.11 µM | 4.28 ± 0.33 µM |  |  |  |  |  |  | 
2 | CC(C)=CCCC1(C)C=Cc2c(O)c3c(c(CC=C(C)C)c2O1)OC12C(=CC4CC1C(C)(C)OC2(C/C=C(/C)C(=O)Oc1cc2ccccc2oc1=O)C4=O)C3=O (stereo not shown) [Compound 6, Coumarin-3-gambogate] | 19.7 ± 2.62 µM | 14.5 ± 1.22 µM | 33.3 ± 1.83 µM | 25.8 ± 1.76 µM | 5.47 ± 0.15 µM | 14.6 ± 0.34 µM | > 20 µM |  |  |  |  |  |  | 
3 | 3-Ethanonephenyl gambogate [Compound 11] |  |  |  |  |  |  |  | 3.31 ± 0.45 µM | 3.13 ± 0.3 µM | 3.31 ± 0.24 µM | 3.64 ± 0.53 µM | 2.09 ± 0.19 µM | 3.48 ± 0.18 µM | 3.94 ± 0.19 µM
4 | CC(C)=CCCC1(C)C=Cc2c(O)c3c(c(CC=C(C)C)c2O1)OC12C(=CC4CC1C(C)(C)OC2(C/C=C(/C)C(=O)Oc1cccc(C)c1[N+](=O)[O-])C4=O)C3=O (stereo not shown) [Compound 14, 3-Methyl-2-nitrophenyl gambogate] | > 80 µM | 34.8 ± 1.84 µM | > 80 µM | 40.6 ± 2.75 µM | 22.6 ± 0.53 µM | 42 ± 2.76 µM | 70.8 ± 2.47 µM |  |  |  |  |  |  | 
5 | CC(=O)c1ccc(OC(=O)/C(C)=C\CC23OC(C)(C)C4CC(C=C5C(=O)c6c(O)c7c(c(CC=C(C)C)c6OC542)OC(C)(CCC=C(C)C)C=C7)C3=O)c([N+](=O)[O-])c1 (stereo not shown) [Compound 5, 2-Nitro-4-ethanonephenyl gambogate] | 5.53 ± 0.4 µM | 5.47 ± 0.24 µM | 6.37 ± 0.11 µM | 9.45 ± 1.42 µM | 2.03 ± 0.2 µM | 4.39 ± 0.27 µM | 4.03 ± 0.34 µM |  |  |  |  |  |  | 
6 | COCCc1ccc(OC(=O)/C(C)=C\CC23OC(C)(C)C4CC(C=C5C(=O)c6c(O)c7c(c(CC=C(C)C)c6OC542)OC(C)(CCC=C(C)C)C=C7)C3=O)cc1 (stereo not shown) [Compound 18, 4-(2-Methoxyethyl)phenyl gambogate] | 66.2 ± 1.65 µM | 2.45 ± 0.15 µM | > 80 µM | 6.45 ± 0.37 µM | 7.52 ± 0.83 µM | 10.4 ± 1.08 µM | 15.2 ± 0.72 µM |  |  |  |  |  |  | 
7 | CCc1ccc(OC(=O)/C(C)=C\CC23OC(C)(C)C4CC(C=C5C(=O)c6c(O)c7c(c(CC=C(C)C)c6OC542)OC(C)(CCC=C(C)C)C=C7)C3=O)cc1 (stereo not shown) [Compound 21, 4-Ethylphenyl gambogate] | > 80 µM | > 80 µM | > 80 µM | > 80 µM | > 80 µM | 70.5 ± 4.86 µM | > 80 µM |  |  |  |  |  |  | 
8 | CC(C)=CCCC1(C)C=Cc2c(O)c3c(c(CC=C(C)C)c2O1)OC12C(=CC4CC1C(C)(C)OC2(C/C=C(/C)C(=O)Oc1ccc2ccc(=O)oc2c1)C4=O)C3=O (stereo not shown) [Compound 7, Coumarin-7-gambogate] | 15.4 ± 2.57 µM | 6 ± 0.4 µM | 16.1 ± 0.55 µM | 10.8 ± 1.1 µM | 2.5 ± 0.12 µM | 10.9 ± 0.72 µM | 8.28 ± 0.33 µM |  |  |  |  |  |  | 
9 | CC(C)=CCCC1(C)C=Cc2c(O)c3c(c(CC=C(C)C)c2O1)OC12C(=CC4CC1C(C)(C)OC2(C/C=C(/C)C(=O)Oc1ccc(Br)c(F)c1F)C4=O)C3=O (stereo not shown) [Compound 24, 4-Bromo-2,3-difluorophenyl gambogate] | > 80 µM | > 80 µM | > 80 µM | > 80 µM | > 80 µM | > 80 µM | > 80 µM |  |  |  |  |  |  | 
10 | CC(C)=CCCC1(C)C=Cc2c(O)c3c(c(CC=C(C)C)c2O1)OC12C(=CC4CC1C(C)(C)OC2(C/C=C(/C)C(=O)Oc1cccc(C=O)c1)C4=O)C3=O (stereo not shown) [Compound 15, 3-Formylphenyl gambogate] | 33 ± 1.5 µM | 6.8 ± 0.78 µM | 62.6 ± 3.12 µM | 10.85 ± 0.06 µM | 6.11 ± 0.39 µM | 13.6 ± 1.16 µM | 14.8 ± 1.19 µM |  |  |  |  |  |  | 
